# Experimental data as given in paper PMC4864979 (Bioorganic & medicinal chemistry, 2015).
# Test system: 50 kinases
# Test: Profiling against 50 kinases, radioactive filter-binding assay
# Assay type: biochemical
# Conditions: duplicate (Supplementary Figure 1)
compound,measurement,value
"NCCCNc1nc(Nc2cccc(NC(=O)N3CCCC3)c2)ncc1I [Compound 3, N-(3-((4-((3-aminopropyl)amino)-5-iodopyrimidin-2-yl)amino)phenyl)pyrrolidine-1-carboxamide]",selectivity throughout the kinome,good selectivity throughout the kinome
